Test results: US8101411B2, “Method for production of corosolic acid in suspension culture of plant cells” (Samyang Genex Corporation, priority 2005, dated 2012)

Assays:
[1] = system: suspension-cultured cells of Eriobotrya japonica; experiment: Addition of inducing agent (elicitor) at the production stage of two-stage high cell-density suspension culture; format: cell-based; settings: for Productivity of Corosolic acid / Productivity of Corosolic acid (% DW) / Cell Dry Weight: 14 days
Method: The cell dry weight was obtained by filtering sampled plant cell culture through Watman no. 4 filter paper using a Buchner funnel, and oven drying at a temperature of 60° C. for 24 hours. […] The % DW (Dry Weight) was calculated from the calculated concentration of corosolic acid. […] The volumetric productivity (mg/L) was calculated by multiplying the calculated % DW content with the cell concentration (g/L, DW) in cell culture. 50 ml of the cell lines which were obtained in EXAMPLE 1-2 were cultured in LS medium with addition of 10 μM of NAA and 1 μM of BA, and collected after 7 days, and 50 ml of 2× concentration of mB5 medium were mixed and cultured in a 250 ml flask. […] The Eriobotrya japonica cells were cultured according to the method of Example 3,except that the concentration of sucrose added to the mB5 medium as the carbon source at the production stage, and the inoculation ratio of Eriobotrya japonica cell were varied as in Table 7. […] In the two-stage culture by using high cell-density culture of Example 4, 6% of sucrose was added to mB5 medium at the production stage, and the inoculated amount was 6 g/L cell dry weight.

[2] = system: absorption of glucose into cells; settings: similar to that of insulin; Chem Pharm. Bull. 41(12): 2129-2131, 1993; cited from earlier work
[3] = cited from earlier work
[4] = AgNO3 2 μM, added at 0-day culture
[5] = AgNO3 4 μM, added at 0 day culture
[6] = AgNO3 6 μM, added at 0-day culture
[7] = Methyl jasmonate 400 μM, added at 3-day culture
[8] = Sodium butyrate 1.0 mM, added at 3-day culture

With O=[N+]([O-])[O-].[Ag+] [AgNO3, silver nitrate] the “maximal concentration of cell increased by” value ([1]; 4 μM added, versus control) was 45%, the “productivity of the suspension-cultured cell” value ([1]; 2-6 μM added to the culture medium, versus control) was “increased the productivity” and the “Productivity of Corosolic acid” value [1, 4] was 1152.07 mg/L. The “Productivity of Corosolic acid (% DW)” value [1, 4] was 4.42 % DW, the “Cell Dry Weight” value ([1]; AgNO3 2 μM, added at 0-day culture, mB5, 6% sucrose, 6 g/L inoculum) was 26.05 g/L and the “Cell Dry Weight” value [1, 5] was 25.66 g/L. For the same molecule, the “Productivity of Corosolic acid” value [1, 5] was 1551.78 mg/L, the “Productivity of Corosolic acid (% DW)” value [1, 5] was 6.05 % DW and the “Cell Dry Weight” value [1, 6] was 24.57 g/L. The “Productivity of Corosolic acid” value [1, 6] was 1335.86 mg/L and the “Productivity of Corosolic acid (% DW)” value [1, 6] was 5.44 % DW.
In the case of CC/C=C\CC1C(=O)CCC1CC(=O)OC (stereo not shown) [Methyl jasmonate], the “amount of corosolic acid increased by” value ([1]; 400 μM methyl jasmonate, versus control) is reported as 100%, the “Cell Dry Weight” value [1, 7] is reported as 22.72 g/L and the “Productivity of Corosolic acid” value [1, 7] is reported as 1913.16 mg/L. The “Productivity of Corosolic acid (% DW)” value [1, 7] was 8.42 % DW.
In the case of CCCC(=O)[O-].[Na+] [Sodium butyrate], the “amount of corosolic acid increased by” value ([1]; 1 mM sodium butylate, versus control) is reported as 100%, the “Cell Dry Weight” value [1, 8] is reported as 24.54 g/L and the “Productivity of Corosolic acid” value [1, 8] is reported as 2081.13 mg/L. The “Productivity of Corosolic acid (% DW)” value [1, 8] was 8.48 % DW.
In the case of corosolic acid, the “activity on absorption of glucose into cells” value [2] is listed as “promoting a rapid absorption of glucose into cells”, the “effect on blood-sugar levels” value ([3]; clinical demonstration, Journal of Ethnopharmacology 87: 115 117, 2003) is listed as “rawer blood-sugar levels” and the side effects ([3]; in vivo) is listed as “without any side effects”.
